Data on one molecule can be found in patent publication US8735609B2, “Bryostatin analogues, synthetic methods and uses” (The Board of Trustees of the Leland Stanford Junior …, priority 2007, dated 2014).

Structures are written as SMILES.

One experiment addresses T1, PKCδ-GFP fusion protein (Homo sapiens, UniProt Q05655).
T1 construct: The DNA encoding C-terminal GFP-tagged full-length PKCδ was electroporated into the cells; expressed in transfected cells; host or cells: Rat basophilic leukemia 2H3 (RBL) cells
Kind of experiment: PKC translocation assay, PKCδ. Conditions: RBL cells, 200 nM, confocal microscopy. The experiment is classed as cell-based, Rat. Here is the method: (§1) Functional activity of analogs were addressed in a PKC translocation assay. […] This translocation can be observed and measured in real time with confocal microscopy using the fusion protein PKC-GFP (green fluorescent protein) as a reporter. Translocation assays were performed on the novel PKC isozymes δ and ε and on the conventional isozyme PKCβ1.
(§2) Rat basophilic leukemia 2H3 (RBL) cells were cultured in Dulbecco's Modified Eagle Medium (DMEM) (Invitrogen Life Technologies, Gibco) containing 20% fetal calf serum with 50 units/ml penicillin, […] and 4 mM glutamine (Gibco). Cells were maintained at 37° C. in an atmosphere of 10% CO2. Two hours prior to transfection, cells were plated onto sterile glass coverslips. […]
(§3) Fluorescence images were obtained using the 488 nm excitation line of a laser scanning confocal microscope (Pascal, Zeiss) and emission was collected through a 505-550 nm band pass filter. […]
(§4) Images were exported as 12 bit files and analyzed using Metamorph data analysis software (Universal Imaging). To monitor the translocation of PKCδ-GFP, a small region of interest was selected in the cytosol of each cell and fluorescence intensity values graphed against time following background subtraction and normalization. […]

For experiment [1], the target named is PKC purified from the rat brain. The experiment can be described thus: PKC binding assay. The note with it: competitive inhibition of [3H]-PDBu binding; read-out: PKC Binding constant. The procedure: Filters (Whatman GF-B, 21 mm dia.) are soaked for 1 hour in a solution containing deionized water (97 mL), and 10% polyethyleneamine (3 mL). An assay buffer solution is prepared by the combining of TRIS (1M, pH 7.4, 1 mL), KCl (1M, 2 μL), CaCl2 (0.1M, 30 μL), bovine serum albumin (40 mg), and diluting to 20 mL with deionized water and stored on ice. Phosphatidyl serine vesicles are prepared by the addition of phosphatidyl serine (10 mg/mL in chloroform, 0.4 mL) to a glass test tube followed by removal of the chloroform under a stream of nitrogen (5 min). To this viscous liquid is added a portion of the prepared assay buffer (4 mL) and the resulting mixture is then transferred to a plastic tube. This tube is then sonicated (Branson Sonifier 250, power=6, 40% duty cycle) four times for 30 sec. with a 30 sec. rest in-between sonications. The resulting solution is stored over ice. PKC is prepared by the addition of cooled assay buffer (10 mL) to PKC (25 mL) purified from the rat brain by the method of Mochly-Rosen et al. (J. Biol. Chem. 1987, 262, 2291) and then stored on ice. Stock solutions of compounds are diluted with absolute ethanol in glass in serial fashion.
Each plastic assay incubation tube is made to contain prepared phosphatidyl serine vesicles (60 μL), prepared PKC solution (200 μL) and analog ([…] plus EtOH (20-0 μL) for a total volume of 20 μL). Lastly, tritiated phorbol dibutryate ([3H]-PDBu) (30 nM, 20 μL) is added to each tube. The assay is carried out using 7-10 analog concentrations, each in triplicate. Non-specific binding is measured in 1-3 tubes by the substitution of phorbol myristate acetate (PMA) (1 mM, 5 μL) and EtOH (15 μL) for the analog/EtOH combination. The tubes are incubated at 37° C. for 90 min. and then put on ice for 5 min. Each tube is then filtered separately through a pre-soaked filter disc. The filter is subsequently rinsed with cold 20 mM TRIS buffer (5 mL) dropwise. The filters are then put in separate scintillation vials and Universol® scintillation fluid is added (3 mL). The filters are immediately counted in a scintillation counter (Beckman LS 6000SC). Counts per minute are averaged among three trials at each concentration. The data is then plotted using a least square fit algorithm with the Macintosh version of Kaleidagraph® (Abelbeck Software) and an IC50 (defined as the concentration of analog required to displace half of the specific PDBu binding to PKC) is calculated. The IC50 then allows determination of the Ki for the analog from the equation: Ki=IC50/(1+[PDBu])/Kd of PDBu).

The target in experiment [2] is T2, PKCε (PKC-GFP fusion protein) (Homo sapiens, UniProt Q02156).
T2 construct: expressed in transfected cells; host or cells: Rat basophilic leukemia 2H3 (RBL) cells
Kind of experiment: PKC translocation assay, PKCε. The experiment is classed as cell-based, Rat. The note with it: RBL cells, 200 nM, confocal microscopy. The procedure:
as §1, §2, §3, §4

Experiment [3] has as its target T3, PKCβI (PKC-GFP fusion protein) (Homo sapiens, UniProt P05771).
T3 construct: expressed in transfected cells; host or cells: Rat basophilic leukemia 2H3 (RBL) cells
Kind of experiment: PKC translocation assay, PKCβI. It counts as cell-based, Rat. The procedure:
as §1, §2, §3, §4

T3 sequence (P05771 whole entry, the tested form may be a part): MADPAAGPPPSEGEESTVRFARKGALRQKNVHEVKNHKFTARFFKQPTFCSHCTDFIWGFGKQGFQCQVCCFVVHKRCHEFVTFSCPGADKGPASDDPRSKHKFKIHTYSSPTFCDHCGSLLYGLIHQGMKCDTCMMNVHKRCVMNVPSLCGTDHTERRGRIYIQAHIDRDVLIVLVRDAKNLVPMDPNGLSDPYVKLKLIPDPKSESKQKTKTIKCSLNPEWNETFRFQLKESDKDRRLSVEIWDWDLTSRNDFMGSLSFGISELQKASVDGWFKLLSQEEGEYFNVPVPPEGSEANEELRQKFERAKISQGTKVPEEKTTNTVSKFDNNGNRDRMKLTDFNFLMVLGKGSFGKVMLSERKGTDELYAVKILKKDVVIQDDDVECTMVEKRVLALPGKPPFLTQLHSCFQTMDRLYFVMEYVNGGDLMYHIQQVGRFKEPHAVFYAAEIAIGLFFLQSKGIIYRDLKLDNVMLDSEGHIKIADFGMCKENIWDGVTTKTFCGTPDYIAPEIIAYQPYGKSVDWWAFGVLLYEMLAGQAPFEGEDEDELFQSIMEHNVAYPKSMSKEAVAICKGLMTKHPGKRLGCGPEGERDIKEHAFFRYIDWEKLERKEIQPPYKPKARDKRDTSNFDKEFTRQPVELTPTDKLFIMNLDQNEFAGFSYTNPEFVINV
T1 sequence (Q05655 whole entry, the tested form may be a part): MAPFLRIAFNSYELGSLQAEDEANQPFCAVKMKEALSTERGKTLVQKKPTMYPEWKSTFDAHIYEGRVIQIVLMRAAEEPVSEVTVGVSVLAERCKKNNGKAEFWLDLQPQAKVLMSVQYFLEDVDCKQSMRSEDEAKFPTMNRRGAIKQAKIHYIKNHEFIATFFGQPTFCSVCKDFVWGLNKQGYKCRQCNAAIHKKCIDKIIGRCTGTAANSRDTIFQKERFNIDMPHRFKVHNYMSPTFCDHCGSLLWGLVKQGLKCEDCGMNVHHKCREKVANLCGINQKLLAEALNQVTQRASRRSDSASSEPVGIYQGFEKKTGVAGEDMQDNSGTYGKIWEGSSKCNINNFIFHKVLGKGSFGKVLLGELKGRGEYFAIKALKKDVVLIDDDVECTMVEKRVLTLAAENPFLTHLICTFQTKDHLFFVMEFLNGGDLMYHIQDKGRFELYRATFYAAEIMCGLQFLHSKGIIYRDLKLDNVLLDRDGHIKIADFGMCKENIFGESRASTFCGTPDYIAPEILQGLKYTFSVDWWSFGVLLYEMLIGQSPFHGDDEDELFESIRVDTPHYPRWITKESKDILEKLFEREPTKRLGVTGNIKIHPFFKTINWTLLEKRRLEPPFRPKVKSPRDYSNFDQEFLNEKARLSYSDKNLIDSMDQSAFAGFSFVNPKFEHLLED
T2 sequence (Q02156 whole entry, the tested form may be a part): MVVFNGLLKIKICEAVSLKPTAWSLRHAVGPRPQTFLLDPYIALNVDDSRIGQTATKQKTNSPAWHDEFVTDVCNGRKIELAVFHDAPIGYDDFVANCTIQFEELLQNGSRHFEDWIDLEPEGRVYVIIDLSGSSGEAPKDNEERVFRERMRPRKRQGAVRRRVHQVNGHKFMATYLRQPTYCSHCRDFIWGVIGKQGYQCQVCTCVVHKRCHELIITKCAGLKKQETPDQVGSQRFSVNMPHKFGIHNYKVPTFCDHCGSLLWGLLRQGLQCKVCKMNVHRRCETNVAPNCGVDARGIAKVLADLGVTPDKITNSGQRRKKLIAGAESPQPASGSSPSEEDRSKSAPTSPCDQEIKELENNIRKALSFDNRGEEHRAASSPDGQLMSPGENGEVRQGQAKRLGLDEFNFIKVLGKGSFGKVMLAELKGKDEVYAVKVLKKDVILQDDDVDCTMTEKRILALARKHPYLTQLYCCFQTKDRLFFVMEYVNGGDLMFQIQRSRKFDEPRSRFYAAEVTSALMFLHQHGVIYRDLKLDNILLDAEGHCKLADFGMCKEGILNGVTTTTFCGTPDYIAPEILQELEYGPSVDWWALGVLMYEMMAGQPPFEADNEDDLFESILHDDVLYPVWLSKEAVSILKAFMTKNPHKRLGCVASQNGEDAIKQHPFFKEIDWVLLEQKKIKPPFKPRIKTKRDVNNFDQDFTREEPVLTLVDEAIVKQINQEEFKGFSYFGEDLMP

Take `CCCCCCCC(=O)OC1C(=CC(=O)OC)CC2CC(CO)OC(=O)CC(O)CC3CCCC(CC4COC(C=CC(C)(C)C1(O)O2)O4)O3` (centres unmarked) [Formula 18B.1]: on PKCδ-GFP fusion protein, the “translocation of PKCδ from the cytosol to cellular membranes” value is “rapid and complete”. Also, the Ki in experiment [1] came out at 5.4 nM. In addition, in experiment [2], the “translocation of PKCε from the cytosol to cellular membranes” value was “rapid and complete”. The “ability to translocate PKCβI relative to bryostatin 1” value in experiment [3] is reported as “significantly reduced ability to translocate”. In addition, the “translocation of PKCβI from the cytosol to cellular membranes” value in experiment [3] (RBL cells, 200 nM, confocal microscopy) is “reduced”.
